In PubChem BioAssay (NCI):
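Where inhibition never reached the appropriate level, the endpoint shown equals the highest concentration tested. Otherwise, values were interpolated linearly from a five-concentration, 48-hour dose response in 96-well plates. At the GI50, growth is halved. At the TGI there is no net growth.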

Assays:
Assay in all cases: inhibition of tumour cell growth, NCI panel, 48 h
[1] = system: IGROV1 ovarian
[2] = system: BT-549 breast
[3] = system: CCRF-CEM leukemia
[4] = system: OVCAR-8 ovarian
[5] = system: HL-60(TB) leukemia
[6] = system: NCI-H23 lung
[7] = system: HS 578T breast
[8] = system: HCT-116 colon
[9] = system: NCI-H226 lung
[10] = system: COLO 205 colon
[11] = system: OVCAR-5 ovarian
[12] = system: MDA-MB-468 breast
[13] = system: HT29 colon
[14] = system: NCI-H522 lung
[15] = system: 786-0 renal
[16] = system: A498 renal
[17] = system: OVCAR-4 ovarian
[18] = system: M14 melanoma
[19] = system: A549 NSCLC
[20] = system: SN12C renal
[21] = system: EKVX NSCLC
[22] = system: DU-145 prostate
[23] = system: SK-OV-3 ovarian
[24] = system: HOP-92 NSCLC
[25] = system: SF-268 CNS
[26] = system: MCF7 breast
[27] = system: ACHN renal
[28] = system: HCT-15 colon
[29] = system: CAKI-1 renal
[30] = system: UACC-257 melanoma
[31] = system: SW-620 colon
[32] = system: HCC-2998 colon
[33] = system: T-47D breast
[34] = system: MALME-3M melanoma
[35] = system: U251 CNS
[36] = system: HOP-62 NSCLC
[37] = system: RPMI-8226 leukemia
[38] = system: TK-10 renal
[39] = system: K-562 leukemia
[40] = system: SR leukemia
[41] = system: OVCAR-3 ovarian
[42] = system: SF-295 CNS
[43] = system: NCI-H460 lung
[44] = system: PC-3 prostate
[45] = system: LOX IMVI melanoma
[46] = system: UACC-62 melanoma
[47] = system: NCI/ADR-RES ovarian
[48] = system: KM12 colon
[49] = system: RXF 393 renal
[50] = system: SNB-19 CNS
[51] = system: SK-MEL-5 melanoma
[52] = system: MOLT-4 leukemia
[53] = system: SK-MEL-28 melanoma

For `CC(=O)Nc1ccc(-n2cnc3cc(-c4ccc(O)cc4)ccc32)cc1F`, the GI50 [1] was 6.21 µM, the TGI [1] was greater than 100 µM and the GI50 [2] was 27 µM. For the same molecule, the TGI [2] was greater than 100 µM, the GI50 [3] was 3.01 µM and the TGI [3] was greater than 100 µM. It also gave a GI50 [4] of 3.48 µM, a TGI [4] greater than 100 µM and a GI50 [5] of 1.23 µM. The TGI [5] was 3.85 µM, the GI50 [6] was 4.77 µM and the TGI [6] was greater than 100 µM. The GI50 [7] was 2.61 µM, the TGI [7] was greater than 100 µM and the GI50 [8] was 4.21 µM. The TGI [8] was greater than 100 µM, the GI50 [9] was 83.2 µM and the TGI [9] was greater than 100 µM. For the same molecule, the GI50 [10] was 3.47 µM, the TGI [10] was greater than 100 µM and the GI50 [11] was 6.22 µM. The TGI [11] was greater than 100 µM, the GI50 [12] was 1.25 µM and the TGI [12] was 4.68 µM. For the same molecule, the GI50 [13] was 3.86 µM, the TGI [13] was greater than 100 µM and the GI50 [14] was 1.63 µM. It also gave a TGI [14] of 4.14 µM, a GI50 [15] of 6.8 µM and a TGI [15] greater than 100 µM. It also gave a GI50 [16] greater than 100 µM, a TGI [16] greater than 100 µM and a GI50 [17] greater than 100 µM. It also gave a TGI [17] greater than 100 µM, a GI50 [18] of 3.39 µM and a TGI [18] greater than 100 µM. For the same molecule, the GI50 [19] was 4.77 µM, the TGI [19] was greater than 100 µM and the GI50 [20] was 5.8 µM. The TGI [20] was greater than 100 µM, the GI50 [21] was 6.04 µM and the TGI [21] was greater than 100 µM. For the same molecule, the GI50 [22] was 4.33 µM, the TGI [22] was greater than 100 µM and the GI50 [23] was 5.05 µM. For the same molecule, the TGI [23] was greater than 100 µM, the GI50 [24] was 23.2 µM and the TGI [24] was greater than 100 µM. For the same molecule, the GI50 [25] was 9.66 µM, the TGI [25] was greater than 100 µM and the GI50 [26] was 2.45 µM. It also gave a TGI [26] greater than 100 µM, a GI50 [27] of 6.33 µM and a TGI [27] greater than 100 µM. For the same molecule, the GI50 [28] was 0.831 µM, the TGI [28] was greater than 100 µM and the GI50 [29] was greater than 100 µM. It also gave a TGI [29] greater than 100 µM, a GI50 [30] of 21.5 µM and a TGI [30] greater than 100 µM. It also gave a GI50 [31] of 3.01 µM, a TGI [31] greater than 100 µM and a GI50 [32] of 5.6 µM. For the same molecule, the TGI [32] was greater than 100 µM, the GI50 [33] was 4.02 µM and the TGI [33] was greater than 100 µM. For the same molecule, the GI50 [34] was 3.35 µM, the TGI [34] was greater than 100 µM and the GI50 [35] was 3.19 µM. For the same molecule, the TGI [35] was greater than 100 µM, the GI50 [36] was 4.53 µM and the TGI [36] was greater than 100 µM. For the same molecule, the GI50 [37] was 3.32 µM, the TGI [37] was 16.4 µM and the GI50 [38] was 49.5 µM. It also gave a TGI [38] greater than 100 µM, a GI50 [39] of 0.496 µM and a TGI [39] greater than 100 µM. For the same molecule, the GI50 [40] was 0.377 µM, the TGI [40] was 27 µM and the GI50 [41] was 3.06 µM. The TGI [41] was greater than 100 µM, the GI50 [42] was 3.34 µM and the TGI [42] was greater than 100 µM. For the same molecule, the GI50 [43] was 3.38 µM, the TGI [43] was greater than 100 µM and the GI50 [44] was 3.66 µM. It also gave a TGI [44] greater than 100 µM, a GI50 [45] of 6.43 µM and a TGI [45] greater than 100 µM. It also gave a GI50 [46] of 2.55 µM, a TGI [46] greater than 100 µM and a GI50 [47] of 2.78 µM. The TGI [47] was greater than 100 µM, the GI50 [48] was 3.22 µM and the TGI [48] was greater than 100 µM. The GI50 [49] was 1.94 µM, the TGI [49] was 6.14 µM and the GI50 [50] was 4.73 µM. It also gave a TGI [50] greater than 100 µM, a GI50 [51] of 4.09 µM and a TGI [51] greater than 100 µM. The GI50 [52] was 2.67 µM, the TGI [52] was greater than 100 µM and the GI50 [53] was 29.7 µM. It also gave a TGI [53] greater than 100 µM.
